Assay results from patent US10925851B2 (Regents of the University of Minnesota, priority 2018, dated 2021).
Several values for one entry are separate records, joined by “and”; a condition that tells them apart may be missing. Equal values may be shown once.

Columns and labels:
mice [1] = experiment: Acetic acid writhing test (persistent pain); assay type: in vivo, mouse
Procedure: Acclimatized animals are treated systemically with a dilute solution of acetic acid inducing abdominal constrictions (writhes) or extension of hind limbs in the animal. The writhes and extensions are counted within a predetermined period of time to analyze the efficacy of the test compound. […] Percent inhibition is calculated according to the equation: % Inhibition=[(Mean number of writhes for control−Mean number of writhes for test compound)/(Mean number of writhes for control)]×100.
The mice were given vehicle or test compounds 15 min before acetic acid administration. Subsequently, all the groups of mice were injected with 1% (10 mL/kg) acetic acid solution intraperitoneally to induce writhing. The animals display characteristic movements such as extension of hind limb, abdominal constriction, and trunk twisting movement called writhing. The numbers of writhing episodes in 30 min period beginning at the time of the acetic acid administration were counted. […] APAP was dissolved in saline. Both test compounds were delivered intraperitoneally to the test animals.

[2] = Distribution of tosedostat in brain and plasma (LC-MS/MS); assay type: in vivo, mouse; settings: 10 mg/Kg i.p., over 4 hours
Procedure: The subjects were intraperitoneally injected with ketamine-xylazine cocktail (100 mg/kg ketamine+10 mg/kg xylazine) 2 minutes prior to the time-point being analyzed. Specifically, samples were collected at 0.25, 0.5, 1, 2, and 4 hours after the drug administration. […] Samples were immediately centrifuged at 3000×rpm for 10 minutes at 4° C. and the separated top plasma layer was transferred into a new tube. Blood samples stored at −80° C. until LC-MS/MS analysis. For brain samples, brain tissue was extracted from the animal and washed with copious volumes of ice-cold D-PBS for removal of blood from the sample. and Collect brain and wash the brain with ice-cold DPBS properly to remove blood. The sample was then gently wiped with absorbent paper, weighed, and transferred into a 15 mL tube. The brain samples were homogenized by adding 1:5 (w/v) of ice-cold D-PBS into the tube and using mechanical homogenizer on them. Homogenized brain samples were also stored at −80° C.
LC-MS/MS analysis: Frozen plasma and brain homogenate samples were thawed and rapidly quenched as detailed here. For plasma samples, 30 μL of DMSO and 60 μL of acetonitrile containing 0.1% formic acid were added to 30 μL of each unknown thawed plasma sample. For brain homogenate samples, 10 μL of DMSO and 60 μL of acetonitrile containing 0.1% formic acid were added to 30 μL of each unknown sample. […]

Neprilysin (NEP) = biological target: T1, Neprilysin (NEP) (Homo sapiens, UniProt P08473); experiment: Neprilysin inhibition assay (Mca-[…](Dpn) FRET substrate); assay type: biochemical
T1 construct: purchased Enzo Life Sciences
T1 sequence (P08473 whole entry, species assumed): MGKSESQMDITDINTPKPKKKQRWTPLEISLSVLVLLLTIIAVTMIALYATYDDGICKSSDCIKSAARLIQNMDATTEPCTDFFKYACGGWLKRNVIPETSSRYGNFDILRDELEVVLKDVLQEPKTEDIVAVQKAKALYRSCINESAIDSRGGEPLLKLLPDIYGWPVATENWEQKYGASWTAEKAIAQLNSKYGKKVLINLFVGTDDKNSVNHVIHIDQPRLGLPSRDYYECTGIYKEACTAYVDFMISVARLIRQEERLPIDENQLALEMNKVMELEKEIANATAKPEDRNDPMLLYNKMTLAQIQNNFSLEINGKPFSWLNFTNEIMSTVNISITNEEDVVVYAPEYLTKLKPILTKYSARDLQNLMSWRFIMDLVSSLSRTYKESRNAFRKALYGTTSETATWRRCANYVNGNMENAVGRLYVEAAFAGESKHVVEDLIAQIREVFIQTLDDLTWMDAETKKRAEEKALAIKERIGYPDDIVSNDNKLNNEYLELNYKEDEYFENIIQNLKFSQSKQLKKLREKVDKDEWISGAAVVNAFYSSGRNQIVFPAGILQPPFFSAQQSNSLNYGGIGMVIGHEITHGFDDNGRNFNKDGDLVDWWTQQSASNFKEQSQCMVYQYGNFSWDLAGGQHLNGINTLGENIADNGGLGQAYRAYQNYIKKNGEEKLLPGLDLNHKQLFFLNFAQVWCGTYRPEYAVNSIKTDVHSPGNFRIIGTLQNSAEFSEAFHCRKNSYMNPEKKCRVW
Procedure: Single concentration studies at 10 μM: Neprilysin inhibition assays were performed as described previously. The substrate Mca-[…](Dpn) and endopeptidase NEP were purchased from Enzo Life Sciences. […] Plate was mixed with a plate shaker at 1500 rpm for 30 seconds. The reaction was started with the addition of 6 μM of the FRET substrate and mixed for another 30 seconds at 1500 rpm. Mca fluorescence is quenched by Dpn until cleavage at Phe by NEP. The accumulation of the Mca was measured by exciting at 320 nm and reading the fluorescence at 405 nm on a Molecular Devices M5e plate reader for 40 minutes at room temperature. Percent inhibition is calculated in GraphPad Prism software using slopes in the linear range for each inhibitor at 10 μM.
Dose-Response Studies for NEP: Neprilysin inhibition assays were performed as described previously. The substrate Mca-[…](Dpn) and endopeptidase NEP were purchased from Enzo Life Sciences. Briefly, 0.5 nM NEP was incubated with 0.5 μL inhibitor. Compounds were tested at 3× dilutions from 100 μM final concentration in 50 mM HEPES pH 6.5 in 50 μL total volume in a black 384-well plate. Plate was mixed with a plate shaker at 1500 rpm for 30 seconds. The reaction was started with the addition of 6 μM of the FRET substrate and mixed for another 30 seconds at 1500 rpm. Mca fluorescence is quenched by Dpn until cleavage at Phe by NEP. The accumulation of the Mca was measured by exciting at 320 nm and reading the fluorescence at 405 nm on a Molecular Devices M5e plate reader for 40 minutes at room temperature. Steady state velocities were used to determine IC50 values by fitting the velocities vs. inhibitor concentration to the sigmoidal concentration-response curve (variable slope) using GraphPad Prism.

mice [3] = experiment: Co-administration of opioid antagonist naloxone in hot-plate and tail-flick assays; assay type: in vivo, mouse
Procedure: Naloxone dissolved in saline was either administered subcutaneously (s.c.; dosage: 5 mg/Kg) via an injection to the interscapular skin, or it was given intracerebroventricularly (5 μg per mouse).
Naloxone is a broad-spectrum opioid receptor antagonist. It is known to interact with, mu- (μ-), delta- (δ-), and kappa- (κ-) opioid receptors, with highest affinity for the μ receptors. […] Naloxone dissolved in saline was delivered subcutaneously (s.c.) via an injection to the interscapular skin.
5 mg/Kg naloxone dissolved in saline was administered subcutaneously (s.c.) via an injection to the interscapular skin. Analgesic efficacy for various time-points was determined in hot-plate and tail-flick assays as detailed above.

CC(C)C[C@@H](C(=O)N[C@H](C(=O)OC1CCCC1)c1ccccc1)[C@H](O)C(=O)NO [Tosedostat]
dosage required for analgesic effect equivalent to 200 mg/Kg APAP (mice [1]; i.p.): 1 mg/kg
inhibition of writhings (mice [1]; i.p. 50 mg/Kg): > 90%
attenuation of writhing episodes compared to control groups (mice [1]; i.p., 30-minute count after acetic acid): significant attenuation of writhing episodes in a dose-dependent manner
presence in brain homogenate compared to plasma samples [2]: minimal presence of tosedostat in the brain homogenate samples
IC50 (Neprilysin (NEP); dose response, 3x dilutions from 100 μM): 900 nM and 890 nM
inhibition at 10 µM (Neprilysin (NEP); inhibitor 10 μM, read-out: NEP @ 10 μM (percent inhibition)): 79%
effect of centrally administered naloxone on analgesic response of tosedostat (mice [3]; tosedostat 58.1 mg/Kg i.p. + naloxone 5 μg per mouse i.c.v.): no attenuation of analgesic response
effect of subcutaneous naloxone on analgesic action of tosedostat (mice [3]; tosedostat 58.1 mg/Kg i.p. + naloxone 5 mg/Kg s.c.): partially blocked the analgesic action
